According to patent US7772425B2, “Vitamin D receptor modulators” (Eli Lilly and Company, priority 2002, dated 2010):
Several values for one entry are separate records, joined by “and”; a condition that tells them apart may be missing. Equal entries are not always repeated. Where two headings read alike, the source gives them in different places.

Assays:
[1] = system: female DBF mice; experiment: Mouse hypercalcemia assay; format: in vivo; details: orally via gavage for 6 days; serum ionized calcium 6 hours after last dosing
From the text: 4. The Mouse Hypercalcemia Assay
(4) Materials and Method for The Mouse Hypercalcemia Assay: […]

[2] = system: rat osteocalcin promoter; experiment: OCN (osteocalcin) promoter assay in RG-15 (ROS 17/2.8) cells; format: cell-based; details: 48 hr treatment, luciferase
Protocol: 3. The OCN (Osteocalcin) Promoter Assay
The OCN Promoter Assay is an indicator and marker for osteoporosis. […] Preferred assay results are less than 50 nM.
(3) Materials and Method for The OCN Promoter Assay:
The activation of osteocalcin by VDR ligands was evaluated in a rat osteoblast-like cell line RG-15 (ROS 17/2.8) stably expressing rat osteocalcin promoter fused with luciferase reporter gene. […] Confluent RG-15 cells maintained in DMEM/F-12 medium (3:1) containing 5% FBS, 300 μg/ml G418 and at 37° C. under 5% CO2/95% air atmosphere were trypsinized (0.25% trypsin) and plated into white opaque 96-well cell culture plates (25000 cells/well). After 24 hr, cells (in DMEM/F-12 medium+2% FBS) were treated with various concentrations of compounds, dissolved in DMSO. The final DMSO concentration remained at 0.01% (v/v). After 48 hr treatment, the medium was removed, cells were lysed with 50 μl of lysis buffer (From Luciferase reporter assay system, Roche Diagnostics, Indianapolis, Ind.) and assayed for luciferase activity using the Luciferase Reporter Gene Assay kit from Boehringer Mannheim as per manufacturer's specifications.

[3] = system: IL-10; experiment: human IL-10 induction assay in PBMCs; format: cell-based; details: TPA/PHA treated human PBMCs, IL-10 immunoassay of supernatant
From the text: The evaluation of the novel compounds of the invention for psoriasis is done using the Keratinocyte Proliferation Assay in combination with other assays that measure inhibition of IL-2 production and stimulation of IL-10 production in peripheral blood mononuclear cells (PBMCs).
6. The IL-10 Induction Assay
This is an in vitro efficacy assay for psoriasis, abscess and adhesion. Psoriasis involves both keratinocytes and immune cells. IL-10 is a unique cytokine because it is anti-inflammatory and immunosuppressive. This assay tells us whether a VDRM is able to function as an agonist in PBMCs (primary blood mononuclear cells) or not. A lower EC50 value is desirable in this assay since a compound with a lower EC50 value will be a better agonist in PBMCs.
(6) Materials and Method for human IL-10 Induction Assay:
Isolation of peripheral blood mononuclear cells (PBMCs):
• A. Collect 50 ml of human blood and dilute with media, RPMI-1640. • B. Prepare sterile tubes with ficol. • C. Add diluted blood to tubes. • D. Centrifuge. • E. Discard the top layer and collect the cells from middle layer. • F. Divide all cells into four tubes and add media. • G. Centrifuge. • H. Aspirate off media and resuspend. • I. Collect all cells • J. Centrifuge. at 1200 rpm for 10 minutes. • K. Resuspend in RPMI-1640 with 2% FBS and count cells Stimulation of PBMC: • L. Prepare TPA in DMSO. • M. Dissolve PHA in water. • N. Plate TPA/PHA treated PBMCs in well plates. • O. Incubate. Treatment: • P. Prepare all compound dilutions in plain RPMI-1640 media. • Q. Add diluted compound. • R. Incubate. Sample Collection and assay: • S. Remove all the cells by centrifugation and assay the supernatant for IL-10 by immunoassay. • 1) T. Perform IL-10 assay using anti-human IL-10 antibody coated beads, as described by the manufacturer (Linco Research Inc., St. Charles, Mo.).

[4] = system: KERtr cells (Human skin keratinocyte); experiment: Keratinocyte proliferation assay; format: cell-based; details: BrdU incorporation, read-out: Kera. Prolif. IC50
Protocol: 5. The Keratinocyte Proliferation Assay
This Assay is indicative for the treatment of psoriasis.
(5) The Keratinocyte Proliferation Assay:
KERtr cells (Human skin keratinocyte transformed with a retrovirus vector, obtained from ATCC) were plated in 96-well flat-bottomed plates (3000 cells/well) in 100 μl keratinocyte serum free medium supplemented with bovine pituitary extract in the absence of EGF (Life Technologies, Rockville, Md.) and incubated at 37° C. for two days. The cells were treated with various concentrations of VDR ligands (ten-fold serial dilution from 10,000 nM to 0.1 nM in triplicate), dissolved in 100 μl keratinocyte serum free medium supplemented with bovine pituitary extract in the absence of EGF and incubated at 37° C. for 72 hr. BrdU (5-bromo-2′-deoxyuridine) incorporation was analyzed as a measure of DNA replication (Cell proliferation ELISA kit, Roche Diagnostics, Indianapolis, Ind.) and absorbance was measured at 405 nm. Potency values (IC50) values were determined as the concentration (nM) of compound that elicited a half-maximal response.

[5] = Homo sapiens, Keratinocyte, 72 h

SMILES	Mouse Hypercal [1] [µg/kg/day]	EC50 [2]	IC50 ([3]; Homo sapiens, PBMC) [nM]	IC50 ([4]; 72 hr) [nM]	IC50 [3] [nM]	IC50 [4, 5] [nM]	EC50 ([2]; Rattus norvegicus, 48 h) [nM]
CCC(CC)(c1ccc(C(=O)O)cc1)c1ccc(OCC(O)C(C)(C)C)c(Cl)c1 (single isomer, unassigned) [Ex. 37, 3′-[3-chloro-4-(2-hydroxy-3,3-dimethylbutoxy)phenyl]-3′-[4-carboxyphenyl]pentane]	1000	12 nM	229	55			
CCC(CC)(c1ccc(-c2nnn[nH]2)cc1)c1ccc(OCC(O)C(C)(C)C)c(C)c1 (single isomer, unassigned) [Ex. 45, 1-(4-{1-Ethyl-1-[4-(1H-tetrazol-5-yl)-phenyl]-propyl}-2-methyl-phenoxy)-3,3-dimethyl-butan-2-ol]	300	0.7 nM		32	15		
CCC(CC)(c1ccc(OCC(O)C(C)(C)C)c(C)c1)c1ccc(C(=O)NCC(=O)O)c(C)c1 (single isomer, unassigned) [Ex. 25B, (4-{1-ethyl-1-[4-(2-hydroxy-3,3-dimethylbutoxy)-3-methylphenyl]-propyl}-2-methylbenzoylamino)acetic acid]	1000	2 nM and 3 nM		26	158		
CCC(CC)(c1ccc(C(=O)O)cc1)c1ccc(OCC(=O)C(C)(C)C)c(C)c1 [Ex. 21, 4-{1-[4-(3,3-Dimethyl-2-oxo-butoxy)-3-methyl-phenyl]-1-ethyl-propyl}-benzoic acid]	6000		1050			223	
CCC(CC)(c1ccc(OC(C)C(O)C(C)(C)C)c(C)c1)c1ccc(C(=O)NCC(=O)O)c(C)c1 (single isomer, unassigned) [Ex. 31, 3′-[4-(2-hydroxy-1,3,3-trimethylbutoxy)-3-methylphenyl]-3′-[4-(carboxymethylaminocarbonyl)-3-methylphenyl]pentane]	3000	1 nM		21	295		
CCC(CC)(c1ccc(-c2nnn[nH]2)cc1)c1ccc(OCC(O)C(C)(C)C)c(C)c1 (single isomer, unassigned) [Ex. 44, 1-(4-{1-Ethyl-1-[4-(1H-tetrazol-5-yl)-phenyl]-propyl}-2-methyl-phenoxy)-3,3-dimethyl-butan-2-ol]	<300	0.1 nM			6	28	
CCC(CC)(c1ccc(OC(C)C(O)C(C)(C)C)c(C)c1)c1ccc(C(=O)Nc2nnn[nH]2)c(C)c1 (single isomer, unassigned) [Ex. 30, 3′-[4-(2-hydroxy-1,3,3-trimethylbutoxy)-3-methylphenyl]-3′-[4-(tetrazol-5-ylaminocarbonyl)-3-methylphenyl]pentane]	1000			20	123		
CCC(CC)(c1ccc(CC2SC(=O)NC2=O)c(C)c1)c1ccc(OCC(O)C(C)(C)C)c(C)c1 (single isomer, unassigned) [Ex. 51, 5-(4-{1-ethyl-1-[4-(2-hydroxy-3,3-dimethyl-butoxy)-3-methyl-phenyl]-propyl}-2-methyl-benzyl)-thiazolidine-2,4-dione]	300	1.4 nM		26	19		
CCC(CC)(c1ccc(OC(C)C(O)C(C)(C)C)c(C)c1)c1ccc(C(=O)Nc2nnn[nH]2)c(C)c1 (single isomer, unassigned) [Ex. 29, 3′-[4-(2-hydroxy-1,3,3-trimethylbutoxy)-3-methylphenyl]-3′-[4-(tetrazol-5-ylaminocarbonyl)-3-methylphenyl]pentane]	3000		153	49			
CCC(CC)(c1ccc(CCC(=O)O)c(C)c1)c1ccc(OCC(=O)C(C)(C)C)c(C)c1 [Ex 6, 3′-[4-(2-oxo-3,3-dimethylbutoxy)-3-methylphenyl]-3′-[4-(2-carboxylethyl)-3-methylphenyl]pentane]	10		55			2	0.3
CCC(CC)(c1ccc(C(=O)O)cc1)c1ccc(OCC(O)C(C)(C)C)c(C)c1 (single isomer, unassigned) [Ex. 22, 4-{1-Ethyl-1-[4-(2-hydroxy-3,3-dimethylbutoxy)-3-methylphenyl]-propyl}benzoic acid]	1000		39	4			
CCC(CC)(c1ccc(OCC(O)C(C)(C)C)c(C)c1)c1ccc(C(=O)N(C)CC(=O)O)c(C)c1 (single isomer, unassigned) [Ex. 18, [(4-{1-ethyl-1-[4-(2-hydroxy-3,3-dimethyl-butoxy)-3-methyl-phenyl]-propyl}-2-methyl-benzoyl)-methyl-amino]-acetic acid]	1000			1000	47		
CCC(CC)(c1ccc(COCC(=O)O)c(C)c1)c1ccc(OCC(O)C(C)(C)C)c(C)c1 (single isomer, unassigned) [Ex. 33, (4-{1-ethyl-1-[4-(2-hydroxy-3,3-dimethyl-butoxy)-3-methyl-phenyl]-propyl}-2-methyl-benzyloxy)-acetic acid]	<300		19			6	
CCC(CC)(c1ccc(OCC(O)C(C)(C)C)c(C)c1)c1ccc(C(=O)N[C@H](C)C(=O)O)c(C)c1 (stereo partly drawn) [Ex. 34, D-2-(4-{1-ethyl-1-[4-(2-hydroxy-3,3-dimethyl-butoxy)-3-methyl-phenyl]-propyl}-2-methyl-benzoylamino)-propionic acid]	<300		45			25	
CCC(CC)(c1ccc(OCC(O)C(C)(C)C)c(C)c1)c1ccc(C(=O)NC(C)(C)C(=O)O)c(C)c1 (single isomer, unassigned) [Ex. 20B, 2-(4-{1-Ethyl-1-[4-(2-hydroxy-3,3-dimethyl-butoxy)-3-methyl-phenyl]-propyl}-2-methyl-benzoylamino)-2-methyl-propionic acid]	300		4			3	
CCC(CC)(c1ccc(OC(C)C(O)C(C)(C)C)c(C)c1)c1ccc(C(=O)NCC(=O)O)c(C)c1 (single isomer, unassigned) [Ex. 32, 3′-[4-(2-hydroxy-1,3,3-trimethylbutoxy)-3-methylphenyl]-3′-[4-(carboxymethylaminocarbonyl)-3-methylphenyl]pentane]	1000			1000	106		
CCC(CC)(c1ccc(C(=O)O)cc1)c1ccc(OCC(O)C(C)(C)C)c(C)c1 (single isomer, unassigned) [Ex. 23, 4-{1-Ethyl-1-[4-(2-hydroxy-3,3-dimethylbutoxy)-3-methylphenyl]-propyl}benzoic acid]	3000			40	27		
